In US11524966B1 (Valo Early Discovery, Inc., priority 2017, dated 2022):

Target: T1, USP28 (USP28-5(1-1077)-TEV-6*His; LifeSensors) (Homo sapiens, UniProt Q96RU2)
T1 construct: construct USP28 (USP28-5(1-1077)-TEV-6*His; LifeSensors); TEV cleavage site (C); 6xHis (C); purchased LifeSensors
T1 sequence (Q96RU2 1-1077): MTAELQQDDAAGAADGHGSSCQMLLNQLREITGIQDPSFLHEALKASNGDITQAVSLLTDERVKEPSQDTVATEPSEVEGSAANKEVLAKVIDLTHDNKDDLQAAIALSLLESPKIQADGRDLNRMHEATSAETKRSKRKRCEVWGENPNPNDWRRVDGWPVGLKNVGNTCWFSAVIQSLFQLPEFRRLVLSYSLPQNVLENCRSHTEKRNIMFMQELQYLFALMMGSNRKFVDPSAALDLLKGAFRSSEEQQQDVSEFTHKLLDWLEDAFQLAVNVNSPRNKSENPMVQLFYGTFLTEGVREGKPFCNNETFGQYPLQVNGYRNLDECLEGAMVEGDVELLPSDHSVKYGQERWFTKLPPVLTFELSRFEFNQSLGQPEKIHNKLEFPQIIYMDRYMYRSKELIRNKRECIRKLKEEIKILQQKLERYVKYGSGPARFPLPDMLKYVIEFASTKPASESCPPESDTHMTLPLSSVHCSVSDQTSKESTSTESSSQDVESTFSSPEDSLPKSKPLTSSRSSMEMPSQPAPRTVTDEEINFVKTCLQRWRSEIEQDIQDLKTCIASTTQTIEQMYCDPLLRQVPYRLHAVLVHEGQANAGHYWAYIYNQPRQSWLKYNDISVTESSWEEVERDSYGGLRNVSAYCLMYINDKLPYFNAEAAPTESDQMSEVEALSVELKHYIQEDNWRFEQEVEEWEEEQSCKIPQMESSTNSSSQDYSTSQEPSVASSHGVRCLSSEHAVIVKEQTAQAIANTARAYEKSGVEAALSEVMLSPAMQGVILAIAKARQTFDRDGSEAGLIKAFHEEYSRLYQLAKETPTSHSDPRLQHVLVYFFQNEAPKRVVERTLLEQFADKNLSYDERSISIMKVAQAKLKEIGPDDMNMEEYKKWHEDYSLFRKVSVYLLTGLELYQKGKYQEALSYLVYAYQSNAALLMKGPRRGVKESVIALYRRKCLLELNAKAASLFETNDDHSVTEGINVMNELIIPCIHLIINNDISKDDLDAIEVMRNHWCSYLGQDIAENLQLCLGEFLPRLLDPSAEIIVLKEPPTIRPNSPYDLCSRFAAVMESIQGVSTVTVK
Assay: Ubiquitin-Rhodamine 110 Assay for USP28 Activity, Example A-1(b)
Format: biochemical
Conditions: Ubiquitin-Rhodamine 110 assay, Example A-1(b)
Method in brief: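 Single-point screening used 10 μM compound with 90 min room-temperature incubation; follow-up dose-responses (25 μM top, 3-fold) used 75 pM USP28 1-1077 construct, 30 min compound preincubation, 25 nM Ub-Rh110, 20 min reaction, citric acid quench. Rh110 fluorescence normalised to no-enzyme and DMSO controls; IC50 from 4-parameter logistic fit.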

Row | Structure (SMILES) | USP28 A-1(b) IC50 range
1 | Cc1ccc2c(N)c(C(=O)N[C@H]3COc4cc(N5CCC(O)CC5)ccc4C3)sc2n1 [Example 7-1, (R)-3-amino-N-(7-(4-hydroxypiperidin-1-yl)chroman-3-yl)-6-methylthieno[2,3-b]pyridine-2-carboxamide] | +++ (0.05-0.2 μM)
2 | Cc1ccc2c(N)c(C(=O)N[C@H]3COc4cc(N5CC[C@H](C(=O)O)C5)ccc4C3)sc2n1 [Example 6-3, (S)-1-((R)-3-(3-amino-6-methylthieno[2,3-b]pyridine-2-carboxamido)chroman-7-yl)pyrrolidine-3-carboxylic acid] | ++ (0.2-2 μM)
3 | O=C(N[C@H]1COc2cc(N3CCNCC3)ccc2C1)c1cnn2ccccc12 [Example 460, (R)-N-(7-(piperazin-1-yl)chroman-3-yl)pyrazolo[1,5-a]pyridine-3-carboxamide] | + (>2 μM)
4 | O=C(N[C@H]1COc2cc(N3CCNCC3)ccc2C1)c1ccc(NCc2ccccn2)nc1 [Example 470, (R)-N-(7-(piperazin-1-yl)chroman-3-yl)-6-((pyridin-2-ylmethyl)amino)nicotinamide] | + (>2 μM)
5 | Cc1ccc2c(N)c(C(=O)N[C@H]3COc4cc(N5C[C@@H](N)[C@H](F)C5)ccc4C3)sc2n1 [Example 3-8, 3-amino-N-((R)-7-((3R,4R)-3-amino-4-fluoropyrrolidin-1-yl)chroman-3-yl)-6-methylthieno[2,3-b]pyridine-2-carboxamide] | ++ (0.2-2 μM)
6 | Cc1ccc2c(N)c(C(=O)N[C@H]3COc4cc(N5CC6COCC(C5)C6(F)F)ccc4C3)sc2n1 [Example 5-4, 3-amino-N-((3R)-7-(9,9-difluoro-3-oxa-7-azabicyclo[3.3.1]nonan-7-yl)chroman-3-yl)-6-methylthieno[2,3-b]pyridine-2-carboxamide] | +++ (0.05-0.2 μM)
7 | Cc1ccc2c(N)c(C(=O)N[C@@H]3CCc4cc(N5CC6CNCC(C5)O6)ccc4C3)sc2n1 [Example 451, N-((2R)-6-(9-oxa-3,7-diazabicyclo[3.3.1]nonan-3-yl)-1,2,3,4-tetrahydronaphthalen-2-yl)-3-amino-6-methylthieno[2,3-b]pyridine-2-carboxamide] | ++ (0.2-2 μM)
8 | Cc1ccc2c(N)c(C(=O)N[C@H]3COc4cc(N5CCN[C@@H](C(F)(F)F)C5)ccc4C3)sc2n1 [Example 3-11, 3-amino-6-methyl-N-((R)-7-((R)-3-(trifluoromethyl)piperazin-1-yl)chroman-3-yl)thieno[2,3-b]pyridine-2-carboxamide] | ++ (0.2-2 μM)
9 | O=C(N[C@H]1COc2cc(N3CCNCC3)ccc2C1)c1ccc(NCc2ccc3c(c2)CCO3)nc1 [Example 472, (R)-6-(((2,3-dihydrobenzofuran-5-yl)methyl)amino)-N-(7-(piperazin-1-yl)chroman-3-yl)nicotinamide] | ++ (0.2-2 μM)
